# Source: patent US20050095278A1, “Use of nitroglycerin to relieve nocturnal muscle cramps” (priority 2003, published 2005)
# System: patients with nocturnal leg muscle cramps
# Experiment: Topically applied nitroglycerin (transdermal patch) in ten patients with nocturnal leg muscle cramps
# Assay type: in vivo, human
# Description: The following Examples show the successful use of topically applied nitroglycerin in treating ten patients with nocturnal leg muscle cramps.
smiles,measurement,setting,value
O=[N+]([O-])OCC(CO[N+](=O)[O-])O[N+](=O)[O-] [nitroglycerin],relief in the frequency and severity of nocturnal muscle cramping (summary of the ten patients),"small amounts of nitroglycerin, even once daily",moderate to significant relief
same,relieving pain and cramping associated with nocturnal muscle cramps (observation),topically applied by a transdermal patch to the lower extremity,effective in relieving pain and cramping
same,relief of pain and cramping associated with muscle cramps (early studies),transdermal delivery at a rate of about 0.1 mg/hr,sufficient for relief of pain and cramping
